Measurements as given in article PMC13047053, “Crystal structure of human INPP5K with an allosteric inhibitor reveals the structural basis for species specific potency” (Scientific Reports, 2026).
pIC50: −log10 of the molar value. Entries after “also recorded” stand apart in the source; their conditions may differ.

Legend:
Assay in all cases: Inorganic phosphate detection assay for phosphatase inhibition
Type in all cases: biochemical
mouse INPP5K = molecular target: T1, mouse INPP5K (Mus musculus, UniProt Q8C5L6)
T1 construct: mouse INPP5K (aa 1–468, UniProt ID: Q8C5L6); FLAG (N); made in house; host or cells: Expi293 cells (pcDNA3.4, transient)
T1 sequence (Q8C5L6 1-468): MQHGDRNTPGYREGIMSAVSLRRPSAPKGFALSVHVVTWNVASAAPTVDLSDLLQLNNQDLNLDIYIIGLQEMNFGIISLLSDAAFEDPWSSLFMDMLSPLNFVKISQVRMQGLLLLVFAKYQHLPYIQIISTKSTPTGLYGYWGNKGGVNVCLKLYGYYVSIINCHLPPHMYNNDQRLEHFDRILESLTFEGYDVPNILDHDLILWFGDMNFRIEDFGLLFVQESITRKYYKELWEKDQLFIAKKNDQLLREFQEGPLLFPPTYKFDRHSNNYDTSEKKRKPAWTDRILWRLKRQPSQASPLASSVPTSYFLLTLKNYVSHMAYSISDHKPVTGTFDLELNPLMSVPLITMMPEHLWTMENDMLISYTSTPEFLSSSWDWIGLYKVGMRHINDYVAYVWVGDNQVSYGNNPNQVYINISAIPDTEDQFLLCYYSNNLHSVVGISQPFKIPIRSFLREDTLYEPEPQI
Text: (§1) The protein purification is described in detail elsewhere. Briefly, full-length human INPP5K (amino acids 1–448, UniProt ID: Q9BT40), rat INPP5K (aa 1–446, UniProt ID: Q9R0B6), mouse INPP5K (aa 1–468, UniProt ID: Q8C5L6), hamster INPP5K (aa 1–453, UniProt ID: G3HTF6), guinea pig INPP5K (aa 1–473, UniProt ID: H0V8T7) containing an N-terminal FLAG-tag, full-length human SHIP2 (aa 1–1 258) containing a C-terminal FLAG-tag, and full-length human PIPP (amino acids 1–1 006) containing an N-terminal His8-tag were all cloned into the pcDNA3.4 expression vector and transiently expressed in Expi293 cells (Thermo Fisher Scientific). The PH domain of human TAPP1 (amino acids 180–404) containing an N-terminal GST-tag was expressed in a pGEX6P1 expression vector (GE Healthcare) in E. coli strain BL21 ((Merck KGaA, Darmstadt, Germany)), following IPTG induction at 37 °C for 5 h. All the FLAG-tagged INPP5Ks and hSHIP2 were purified using affinity columns containing DDDDK-tagged protein purification gel (MBL, Medical & Biological Laboratories Co., Ltd., Tokyo, Japan), followed by size-exclusion chromatography with Superdex 200 columns (GE Healthcare). His8-tagged hPIPP was purified using Ni–NTA Superflow (Qiagen) and Superdex 200 columns. The GST-tagged hTAPP1 domain was purified using a Glutathione Sepharose 4B (GE Healthcare) and Superdex 200 columns. The purity of the protein obtained was evaluated using SDS-PAGE.
(§2) The release of inorganic phosphate was measured using a PiPer Phosphate Assay Kit (Thermo Fisher Scientific), according to the manufacturer’s instructions, but with some modifications. Enzyme reactions were performed in a final volume of 10 µL per well in a 384-well nonbinding black plates (Greiner Bio-One International, GmbH, Kremsmünster, Austria). The reaction mixtures containing 20 µM diC8-PI(3,4,5)P₃ and each enzyme (human INPP5K, mouse INPP5K, rat INPP5K, hamster INPP5K, guinea pig INPP5K, human SHIP2, or human PIPP) in reaction buffer (50 mM Tris–HCl pH 7.0, 150 mM NaCl, 7.5 mM MgCl₂, 0.03% Igepal CA-630, 0.03% gelatin), with or without various concentrations of inhibitor, were incubated for 20 min at room temperature. The reactions were then stopped and detection reactions were initiated by adding 5 µL of detection mix 1 (60 mM EDTA, 12 U/mL maltose phosphorylase, and 0.6 mM maltose in 100 mM Tris–HCl pH 8.0). After incubation for 60 min at room temperature, 5 µL of detection mix 2 (8 U/mL glucose oxidase, 0.8 U/mL HRP, and 100 µM Amplex Red in 100 mM Tris–HCl pH 8.0) was added, and the mixture was incubated for a further 30 min at room temperature in the dark. The fluorescence generated was measured using an Envision plate reader at 531/590 nm (excitation/emission), and the percentage inhibition was calculated as described above.

hamster INPP5K = molecular target: T2, hamster INPP5K (Cricetulus griseus, UniProt G3HTF6); settings: 20 µM diC8-PI(3,4,5)P3, 20 min
T2 construct: hamster INPP5K (aa 1–453, UniProt ID: G3HTF6); FLAG (N); made in house; host or cells: Expi293 cells (pcDNA3.4, transient)
T2 sequence (G3HTF6 1-451): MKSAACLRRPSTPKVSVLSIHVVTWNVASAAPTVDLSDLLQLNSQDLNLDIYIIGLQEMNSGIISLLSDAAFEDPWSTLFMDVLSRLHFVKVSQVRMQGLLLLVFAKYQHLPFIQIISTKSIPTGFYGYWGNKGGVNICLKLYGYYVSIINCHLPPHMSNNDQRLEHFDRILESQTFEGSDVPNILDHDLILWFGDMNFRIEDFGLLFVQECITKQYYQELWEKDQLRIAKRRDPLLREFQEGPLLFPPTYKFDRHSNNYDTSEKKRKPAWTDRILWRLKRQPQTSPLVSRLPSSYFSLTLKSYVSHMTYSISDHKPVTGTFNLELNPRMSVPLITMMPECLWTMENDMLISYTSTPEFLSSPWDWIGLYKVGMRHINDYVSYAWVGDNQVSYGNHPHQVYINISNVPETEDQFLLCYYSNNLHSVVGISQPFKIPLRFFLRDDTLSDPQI
Text: as §1, §2

rat INPP5K = molecular target: T3, rat INPP5K (Rattus norvegicus, UniProt A0A0G2K2Z2)
T3 construct: rat INPP5K (aa 1–446, UniProt ID: Q9R0B6); FLAG (N); made in house; host or cells: Expi293 cells (pcDNA3.4, transient)
T3 sequence (A0A0G2K2Z2 1-446): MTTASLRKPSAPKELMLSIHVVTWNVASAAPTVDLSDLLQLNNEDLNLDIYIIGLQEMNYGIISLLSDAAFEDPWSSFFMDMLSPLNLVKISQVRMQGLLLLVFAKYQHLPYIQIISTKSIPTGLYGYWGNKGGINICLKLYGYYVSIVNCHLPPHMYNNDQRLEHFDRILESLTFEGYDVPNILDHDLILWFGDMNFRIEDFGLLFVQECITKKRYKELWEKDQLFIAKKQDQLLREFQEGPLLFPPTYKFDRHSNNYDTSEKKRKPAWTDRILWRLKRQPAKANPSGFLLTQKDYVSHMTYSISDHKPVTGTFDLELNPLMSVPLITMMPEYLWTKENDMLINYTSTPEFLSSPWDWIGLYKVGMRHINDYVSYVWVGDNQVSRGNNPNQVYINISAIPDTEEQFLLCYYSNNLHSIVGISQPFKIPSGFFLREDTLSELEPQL
Text: as §1, §2

[1] = inorganic phosphate detection assay, 20 µM diC8-PI(3,4,5)P3, 20 min

Question: Which results are given for CC(C)c1sc(NC(=O)c2ccccc2)c(C(=O)O)c1-c1ccccc1 [CPD-1]?
Answer: pIC50 (mouse INPP5K; [1]): < 4.00; inhibition of mouse INPP5K (in words) (mouse INPP5K; result in words): no inhibition; also recorded: inactive; pIC50 (hamster INPP5K): 5.09; pIC50 (rat INPP5K; [1]): < 4.00; inhibition of rat INPP5K (in words) (rat INPP5K; result in words): no inhibition; also recorded: inactive
